These are literature values, as cited in patent US20080286370A1, “Nanoscale Particles Used as Contrasting Agents in Magnetic Resonance Imaging” (priority 2005, published 2008).

For series [1] the following is noted: copper or zinc.
For series [2] the following is noted: in vivo.
For series [3] the following is noted: human, in vivo.

Each structure is given as a SMILES string.

As for `O=C([O-])CN1CCN(CC(=O)[O-])CCN(CC(=O)O)CCN(CC(=O)[O-])CC1.[Gd+3]` [Gd-DOTA, gadoteric acid], the “exchange of gadolinium with endogenic metal ions” value in series [1] is listed as “less than 1%”. In series [2], the eliminated is given as 75% and the “passage through the blood/brain barrier” value is on record as “do not pass through the blood/brain barrier”. Also, in series [3], the “adverse effect on vital parameters or renal function” value was “absolutely no adverse effect”, the “patients who suffered from nausea” value is 8, the “patients who suffered from vomiting” value is reported as 5 and the pseudohypocalcaemia entry is recorded as “has not caused pseudohypocalcaemia”. In series [3], the side-effect rate was 0.84-0.97%; the systemic osmolality effects entry is reported as “negligible”; the “temperature, headaches, an unwell feeling, skin rash and an unpleasant taste in the mouth” value is “less than 0.15%”; the “total rate of nausea and vomiting” value was 0.31%.
